According to US4386103A, “Dichloroamino acid derivatives useful as potent germicidal and fungicidal agents” (Merck & Co., Inc., priority 1981, dated 1983):

Legend:
Assay type in all cases: cell-based
Aspergillus fumigatus = assay: Contact fungicidal screen, Aspergillus fumigatus; conditions: 0.1M NaOAc pH 4.6
Experimental: (§1) The organisms used in the Contact Fungicidal Screen are a dermatophyte, trychophyton mentagrophytes, frequently associated with athlete's foot; a yeast, Candida albican, causative agent of thrush and vaginitis; a phycomycete, Rhizopus oryzae, commonly known as black bread mold; an ascomycete, Aspergillus fumagatis, found in chicken droppings and causing lung infections; and another dermatophyte, Microsporum canis, which causes ringworm. These organisms are maintained as stock cultures at 4° C. on agar […] of the following composition: dextrose 2%, Neopeptone (Difco) 1%, agar 2%. Fluid medium of the same nutrient composition (without agar) was used to test the viability of the organisms after exposure to the fungicide. This medium is also known as Sabouraud's medium. Sabouraud's agar plate cultures of Aspergillus fumigatus, Microsporum canis, and a different culture of Trychophyton mentagrophytes are prepared by planting an inoculum at the center of an agar plate and incubating at 25°-30° C. for seven to ten days. The mycelial mats are removed from the surface of the agar and prepared in the same manner as the Rhizopus culture. The compounds are weighed into heat sterilized 100 ml volumetric flasks and immediately before screening dissolved in 0.1 M NaOAc pH 4.6 buffer (test solutions). The Aspergillus, Candida, Microsporum and Rhizopus species are screened in a slightly different manner. Basically, the procedure for the Contact Germicidal Efficiency Screen is utilized. After the test solutions are made up, 5 ml aliquots are pipetted into heat sterilized 25 ml glass stoppered erlenmeyer flasks. The screen is initiated when 0.5 ml of the 5×10^6 cell (spore) per ml suspension is added to the flask containing 5 ml of the test solution. […] The subculture tubes are incubated at 25°-30° C. for ten days with daily observation for mycelial growth. The earliest subculture time at which no growth is present is considered the endpoint and is recorded as the sterilization time. To insure the viability of the culture, a 0.5 ml aliquot of the 5×10^6 cells (spores) per ml suspension is transferred to 5 ml of the pH 4.6 buffer. A loopful of the inoculated buffer is then subcultured to 7 ml of fluid Sabouraud's medium and incubated at 25°-30° C. for ten days. To insure that the dilution of the test solution into the subculture medium does stop the action, a loopful of the test solution and a loopful of the inoculated buffer are transferred into the same subculture tube. This tube is also incubated at 25°-30° C. for ten days.

Bacillus subtilis = assay: Contact germicidal screen, Bacillus subtilis ATCC No. 60511
Experimental: (§2) The organisms used in the contact germicidal screen are all maintained as stock cultures on nutrient agar […] 4° C. They are transferred and biochemically diagnosed monthly. The five organisms used are: The media used are: […] Overnight cultures of the test organisms are grown in tryptose phosphate broth. After 15-16 hours, the cultures are centrifuged at […] for 15 minutes, and the supernatant replaced with fresh warm (37° C.) media. After two hours of incubation, the absorbance of the culture at 650 nm is determined and diluted with nutrient broth to 1×10^7 colony forming units per ml (using a previous determined standard curve: colony forming units/ml vs. absorbance at 650). The diluted cultures are maintained at 4°-8° C. throughout the screen. The compounds are weighed into sterile 100 ml volumetric flasks, and immediately before screening dissolved in one of the following buffers: 0.1 M NaOAc pH 4.6 or 0.1 M NaH2 PO4 pH 7.0. If solubility poses a problem, 10-30% methanol is used to effect solution. Two denaturing agents are also tested: […] Horse Serum restored with 100 ml distilled water and 10% Trition×100. When used, 2.5 ml of the denaturing agent is mixed with 2.5 ml of double strength test solution thirty minutes before the bacterial suspension is added. The screen is initiated when 0.2 ml of the bacterial suspension is added to 5.0 ml of the test solution contained in a sterile 25 ml glass stoppered flask. At intervals of 0.5, 2.5, 5.0, 10.0 and 15.0 minutes, a loopful of the inoculated test solution is subcultured into 5 ml of sterile nutrient broth and mixed with a vortex, the high dilution serving to stop the action of the compound. All of the subculture tubes are incubated at 37° C. and checked for signs of growth by turbidity at 1, 3, 5 and 7 days. The earliest subculture time at which no growth is present is considered the endpoint and is recorded as the sterilization time. An aliquot of 0.2 ml of the diluted culture is transferred to 5 ml of buffer to simulate 0.2 ml in 5 ml of test solution. (a) Purity: A loopful of the inoculated buffer is streaked onto nutrient agar to check colony morphology and lack of contaminants. (b) Viability: A loopful of the inoculated buffer is subcultured to 5 ml of nutrient broth as in the screen and incubated at 37° C. for 24 hours. (c) Dilution of the Test Solution: A loopful of the test solution is transferred to a 5 ml tube of nutrient broth, and a loopful of the inoculated buffer is transferred to the same tube of broth. […] (d) Purity of Organisms in the Test Solution: After the 15 minute subculture, a loopful of the inoculated test solution is streaked onto nutrient agar to insure that contamination has not occurred during the screen. (e) lack of Bactericidal Activity of Buffers and Other Solvents: Before a buffer or other solvent is used as a diluent, it is screened against the five organisms to insure that the buffer or solvent has no antibacterial activity itself.

Staphylococcus aureus = assay: Contact germicidal screen, Staphylococcus aureus ATCC No. 6538
Experimental: as §2

[1] = test system: Trychophyton mentagrophytes; assay: Contact fungicidal screen, Trychophyton mentagrophytes; conditions: 0.1M NaOAc pH 4.6
Microsporum canis = assay: Contact fungicidal screen, Microsporum canis; conditions: 0.1M NaOAc pH 4.6
Experimental: as §1

[2] = 10.0+ PPM, 0.1M NaOAc pH 4.6, screened simultaneously with four other compounds
[3] = 51.0 PPM, Triton X100 (10% solution):pH 4.6 buffer 1:1
[4] = 51.0 PPM, horse serum:pH 4.6 buffer 1:1
[5] = 300 PPM with 50% Horse Serum, 0.1M NaOAc pH 4.6
[6] = 300 PPM with 50% Triton X100, 0.1M NaOAc pH 4.6
[7] = 300 PPM, pH 4.6 buffer with 10% serum
[8] = 300 PPM, pH 4.6 buffer with 20% serum
[9] = 300 PPM, pH 4.6 buffer with 35% serum
[10] = 304.6 PPM, horse serum:pH 4.6 buffer 1:1
[11] = 304.8 PPM, Triton X100 (10% solution):pH 4.6 buffer 1:1
[12] = 606.9 PPM, pH 4.6 buffer with 33% serum
[13] = 899.25 PPM, pH 4.6 buffer with 25% serum
[14] = 1000 PPM with 50% Horse Serum, 0.1M NaOAc pH 4.6
[15] = 1001.2 PPM, horse serum:pH 4.6 buffer 1:1
[16] = 1016.0 PPM, 0.1M NaH2PO4 pH 7.0

## CC(C)(CC(=O)O)N(Cl)Cl [(II)]
Aspergillus fumigatus; 10 PPM
  Sterilization Time: 15 min
Aspergillus fumigatus; 100 PPM
  Sterilization Time: 15 min
Aspergillus fumigatus; 1000 PPM
  Sterilization Time: 15 min
Bacillus subtilis; 1.8 PPM, 0.1M NaOAc pH 4.6
  Sterilization Time: 5.0 min
Bacillus subtilis; 4.5 PPM, 0.1M NaOAc pH 4.6
  Sterilization Time: 2.5 min
Bacillus subtilis; [2]
  Sterilization Time: 2.5 min
Bacillus subtilis; 10 PPM, 0.1M NaOAc pH 4.6
  Sterilization Time (summary): 2.5 min
Bacillus subtilis; 10.0 PPM, 0.1M NaOAc pH 4.6
  Sterilization Time: 2.5 min
Bacillus subtilis; 12.2 PPM, 0.1M NaOAc pH 4.6
  Sterilization Time: 2.5 min
Bacillus subtilis; 32.1 PPM, 0.1M NaOAc pH 4.6
  Sterilization Time: 0.5 min
Bacillus subtilis; [3]
  Sterilization Time: 0.5 min
Bacillus subtilis; [4]
  Sterilization Time: 15 min
Bacillus subtilis; 71.7 PPM, 0.1M NaOAc pH 4.6
  Sterilization Time: 0.5 min
Bacillus subtilis; 100 PPM, 0.1M NaOAc pH 4.6
  Sterilization Time (summary): 0.5 min
Bacillus subtilis; 104.7 PPM, 0.1M NaOAc pH 4.6
  Sterilization Time: 0.5 min
Bacillus subtilis; 107.8 PPM, 0.1M NaH2PO4 pH 7.0
  Sterilization Time: 5.0 min
Bacillus subtilis; 298.9 PPM, 0.1M NaOAc pH 4.6
  Sterilization Time: 0.5 min
Bacillus subtilis; [5]
  Sterilization Time (summary): 2.5 min
Bacillus subtilis; [6]
  Sterilization Time (summary): 0.5 min
Bacillus subtilis; [7]
  Sterilization Time: 0.5 min
Bacillus subtilis; [8]
  Sterilization Time: 0.5 min
Bacillus subtilis; [9]
  Sterilization Time: 2.5 min
Bacillus subtilis; [10]
  Sterilization Time: 2.5 min
Bacillus subtilis; [11]
  Sterilization Time: 0.5 min
Bacillus subtilis; 316.6 PPM, 0.1M NaH2PO4 pH 7.0
  Sterilization Time: 2.5 min
Bacillus subtilis; [12]
  Sterilization Time: 0.5 min
Bacillus subtilis; [13]
  Sterilization Time: 0.5 min
Bacillus subtilis; [14]
  Sterilization Time (summary): 0.5 min
Bacillus subtilis; 1000 PPM, 0.1M NaOAc pH 4.6
  Sterilization Time (summary): 0.5 min
Bacillus subtilis; [15]
  Sterilization Time: 0.5 min
Bacillus subtilis; 1014.8 PPM, 0.1M NaOAc pH 4.6
  Sterilization Time: 0.5 min
Bacillus subtilis; [16]
  Sterilization Time: 0.5 min
Staphylococcus aureus; 1.8 PPM, 0.1M NaOAc pH 4.6
  Sterilization Time: 15.0 min
Staphylococcus aureus; 4.5 PPM, 0.1M NaOAc pH 4.6
  Sterilization Time: 10.0 min
Staphylococcus aureus; [2]
  Sterilization Time: 2.5 min
Staphylococcus aureus; 10 PPM, 0.1M NaOAc pH 4.6
  Sterilization Time (summary): 2.5 min
Staphylococcus aureus; 10.0 PPM, 0.1M NaOAc pH 4.6
  Sterilization Time: 2.5 min
Staphylococcus aureus; 12.2 PPM, 0.1M NaOAc pH 4.6
  Sterilization Time: 2.5 min
Staphylococcus aureus; 32.1 PPM, 0.1M NaOAc pH 4.6
  Sterilization Time: 2.5 min
Staphylococcus aureus; [3]
  Sterilization Time: 2.5 min
Staphylococcus aureus; [4]
  Sterilization Time: 15 min
Staphylococcus aureus; 71.7 PPM, 0.1M NaOAc pH 4.6
  Sterilization Time: 0.5 min
Staphylococcus aureus; 100 PPM, 0.1M NaOAc pH 4.6
  Sterilization Time (summary): 0.5 min
Staphylococcus aureus; 104.7 PPM, 0.1M NaOAc pH 4.6
  Sterilization Time: 0.5 min
Staphylococcus aureus; 107.8 PPM, 0.1M NaH2PO4 pH 7.0
  Sterilization Time: 10.0 min
Staphylococcus aureus; 298.9 PPM, 0.1M NaOAc pH 4.6
  Sterilization Time: 0.5 min
Staphylococcus aureus; [5]
  Sterilization Time (summary): 15 min
Staphylococcus aureus; [6]
  Sterilization Time (summary): 0.5 min
Staphylococcus aureus; [7]
  Sterilization Time: 0.5 min
Staphylococcus aureus; [8]
  Sterilization Time: 2.5 min
Staphylococcus aureus; [9]
  Sterilization Time: 10.0 min
Staphylococcus aureus; [10]
  Sterilization Time: 15 min
Staphylococcus aureus; [11]
  Sterilization Time: 0.5 min
Staphylococcus aureus; 316.6 PPM, 0.1M NaH2PO4 pH 7.0
  Sterilization Time: 5.0 min
Staphylococcus aureus; [12]
  Sterilization Time: 0.5 min
Staphylococcus aureus; [13]
  Sterilization Time: 0.5 min
Staphylococcus aureus; [14]
  Sterilization Time (summary): 0.5 min
Staphylococcus aureus; 1000 PPM, 0.1M NaOAc pH 4.6
  Sterilization Time (summary): 0.5 min
Staphylococcus aureus; [15]
  Sterilization Time: 0.5 min
Staphylococcus aureus; 1014.8 PPM, 0.1M NaOAc pH 4.6
  Sterilization Time: 0.5 min
Staphylococcus aureus; [16]
  Sterilization Time: 2.5 min
[1]; 10 PPM
  Sterilization Time: 5.0 min
[1]; 100 PPM
  Sterilization Time: 0.5 min
[1]; 1000 PPM
  Sterilization Time: 0.5 min
Microsporum canis; 10 PPM
  Sterilization Time: 15 min
Microsporum canis; 100 PPM
  Sterilization Time: 10.0 min
Microsporum canis; 1000 PPM
  Sterilization Time: 2.5 min
